According to patent US20050004186A1, “MEK inhibiting compounds” (Pfizer Inc, priority 2002, published 2005):

Experiments:
MEK = experiment: Cellular assay for measuring MEK inhibition, C26ELSA (pERK ELISA format in C26 cells); assay type: cell-based, murine; settings: for IC50: murine colon 26 (C26) carcinoma cells, one hour at 37 C
Protocol: Cellular Assay for Measuring MEK Inhibition
MEK inhibitors were evaluated by determining their ability to inhibit phosphorylation of MAP kinase (ERK) in murine colon 26 (C26) carcinoma cells. Since ERK1 and ERK2 represent the only known substrates for MEK1 and MEK2, the measurement of inhibition of ERK phosphorylation in cells provides direct read out of cellular MEK inhibition by the compounds of the invention. Detection of phosphorylation of ERK was carried out either by Western blot or ELISA format. Briefly, the assays involve treatment of exponentially growing C26 cells with varying concentrations of the test compound (or vehicle control) for one hour at 37≡ C. For Western blot assay, cells were rinsed free of compound/vehicle and lysed in a solution containing 70 mM NaCl, 50 mM glycerol phosphate, 10 mM HEPES, […], 1% Triton X-100, 1 mM Na3VO4, 100 μM PMSF, 10 μM leupeptin and 10 μM pepstatin. Supernatants were then subjected to gel electrophoresis and hybridized to a primary antibody recognizing dually phosphorylated ERK1 and ERK2. To evaluate total MAPK levels, blots were subsequently ‘stripped’ and re-probed with a 1:1 mixture of polyclonal antibodies recognizing unphosphorylated ERK1 and ERK2. For pERK ELISA assay, pERK TiterZyme Enzyme immunometric Assay kits were acquired from Assay Designs, Inc (Ann Arbor, Mich.). Briefly, cells were harvested in lysis solution containing 50 mM β-glycerophosphate, 10 mM HEPES, pH7.4, 70 mM NaCl, 2 mM EDTA and 1% SDS and protein lysates were diluted 1:15 with supplied Assay buffer prior to the execution of the assay. The subsequent steps were carried out essentially as recommended by the manufacturer.

| Compound | C26ELSA % Inhibition @ 5 μM (MEK; 5 μM, C26 cells) | melting point | IC50 (MEK) |
| --- | --- | --- | --- |
| CCc1nnc(-c2ccc(F)c(F)c2Nc2ccc(I)cc2F)o1 [Example 143, [6-(5-Ethyl-[1,3,4]oxadiazol-2-yl)-2,3-difluoro-phenyl]-(2-fluoro-4-iodo-phenyl)-amine] | 88% | 97 to 98 °C |  |
| OCC(CO)Nc1nnc(-c2ccc(F)c(F)c2Nc2ccc(I)cc2F)o1 [Example 154, 2-{5-[3,4-Difluoro-2-(2-fluoro-4-iodo-phenylamino)-phenyl]-[1,3,4]oxadiazol-2-ylamino}-propane-1,3-diol] |  | 110 to 114 °C (dec.) | 110 nM |
| CCc1ccc(Nc2c(-c3nnc(NC[C@@H](O)CO)o3)ccc(F)c2F)c(F)c1 [Example 152, 3-{5-[2-(4-Ethyl-2-fluoro-phenylamino)-3,4-difluoro-phenyl]-[1,3,4]oxadiazol-2-ylamino}-propane-1,2(R)-diol] |  | 150 to 152 °C (dec.) | 2400 nM |
| OCCCc1ccc(Nc2c(-c3nnc(NCCN4CCOCC4)o3)ccc(F)c2F)c(F)c1 [Example 147, 3-(4-{2,3-Difluoro-6-[5-(2-morpholin-4-yl-ethylamino)-[1,3,4]oxadiazol-2-yl]-phenylamino}-3-fluoro-phenyl)-propan-1-ol] |  | 102 to 106 °C | 34000 nM |
| C=Cc1ccc(Nc2c(-c3nnc(NCCN4CCOCC4)o3)ccc(F)c2F)c(F)c1 [Example 156, {5-[3,4-Difluoro-2-(2-fluoro-4-vinyl-phenylamino)-phenyl]-[1,3,4]oxadiazol-2-yl}-(2-morpholin-4-yl-ethyl)-amine] |  | 174 to 177 °C | 710 nM |
| C#Cc1ccc(Nc2c(-c3nnc(NCCN4CCOCC4)o3)ccc(F)c2F)c(F)c1 [Example 148, {5-[2-(4-Ethynyl-2-fluoro-phenylamino)-3,4-difluoro-phenyl]-[1,3,4]oxadiazol-2-yl}-(2-morpholin-4-yl-ethyl)-amine] |  | 146 to 148 °C | 63 nM |
| OC[C@H](O)CNc1nnc(-c2ccc(F)c(F)c2Nc2ccc(I)cc2F)o1 [Example 150, 3-{5-[3,4-Difluoro-2-(2-fluoro-4-iodo-phenylamino)-phenyl]-[1,3,4]oxadiazol-2-ylamino}-propane-1,2 (R)-diol] |  | 174 to 176 °C | 92 nM |
| C#Cc1ccc(Nc2c(-c3nnc(NCCO)o3)ccc(F)c2F)c(F)c1 [Example 140, 2-{5-[2-(4-Ethynyl-2-fluoro-phenylamino)-3,4-difluoro-phenyl]-[1,3,4]oxadiazol-2-ylamino}-ethanol] |  | 115.9 to 116.5 °C | 3 nM |
